How the values were obtained:
IDO1 in SKOV3 cells = target: T1, IDO1 in SKOV3 cells (Homo sapiens, UniProt P14902); test: Cell-based IDO inhibitory activity in IFNγ-stimulated SKOV3 cells (NFK + kynurenine by LCMS); conditions: IFNγ 50 ng/ml, 200 uM L-tryptophan, 24 hours
T1 construct: SKOV3 cells (NCI, No. 0503405) which upregulate IDO1 after stimulation with IFNγ; host or cells: SKOV3 cells stimulated with IFNγ
Procedure, shortened: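 SKOV3 cells (4000/well, pre-cultured 24 h) were treated with compound (10 uM-40 nM) plus 200 uM L-tryptophan and 50 ng/ml IFNγ for 24 h at 37° C. N-formylkynurenine plus kynurenine in supernatant was measured by LCMS against a d5-tryptophan internal standard. IC50 was fitted against 0.2% DMSO and reference-inhibitor controls, in duplicate, with repeat measurements averaged.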

[1] = target: T2, Recombinant full-length human IDO1 (Homo sapiens, UniProt P14902); test: IDO1 enzymatic assay (NFK quantified by LCMS); assay type: biochemical; conditions: 2 nM enzyme, 5 μM L-tryptophan, 30 min pre-incubation, pH6.5; mean if measured multiple times; read-out: hIDO activity (IC50 in nM)
T2 construct: Recombinant full-length human IDO1 with a N-terminal hexahistidine tag; hexahistidine (N); made in house; host or cells: E. coli
Procedure, shortened: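 His-tagged full-length IDO1 (E. coli, 2 nM final) in pH 6.5 phosphate with ascorbate, methylene blue and catalase was preincubated 30 min at RT with compound (10 µM–0.5 nM, 0.6% DMSO), then run 30 min at RT with 5 µM L-Trp. NFK was measured by LCMS against a d5-Trp standard. IC50 came from a four-parameter fit of duplicates.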

[2] = target: T3, Recombinant human TDO comprising amino acids 19-407 (Homo sapiens, UniProt P48775); test: TDO2 enzymatic assay (NFK quantified by LCMS); assay type: biochemical; conditions: 15 nM enzyme, 200 μM L-tryptophan, 30 min pre-incubation, pH7; mean if measured multiple times; read-out: hTDO activity (IC50 in nM)
T3 construct: human TDO comprising amino acids 19-407; hexahistidine (N); made in house; host or cells: E. coli
Procedure, shortened: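 E. coli-expressed N-terminal His-tagged TDO (15 nM) in pH 7 phosphate buffer with ascorbate and catalase, preincubated 30 min at RT with compound (10 μM to 0.5 nM, 0.6% DMSO). Reaction started with 200 μM L-tryptophan for 30 min at RT; NFK measured by LCMS against deuterated internal standard, IC50 by four-parameter fit, duplicates.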

T3 sequence (P48775 19-406 limits assumed): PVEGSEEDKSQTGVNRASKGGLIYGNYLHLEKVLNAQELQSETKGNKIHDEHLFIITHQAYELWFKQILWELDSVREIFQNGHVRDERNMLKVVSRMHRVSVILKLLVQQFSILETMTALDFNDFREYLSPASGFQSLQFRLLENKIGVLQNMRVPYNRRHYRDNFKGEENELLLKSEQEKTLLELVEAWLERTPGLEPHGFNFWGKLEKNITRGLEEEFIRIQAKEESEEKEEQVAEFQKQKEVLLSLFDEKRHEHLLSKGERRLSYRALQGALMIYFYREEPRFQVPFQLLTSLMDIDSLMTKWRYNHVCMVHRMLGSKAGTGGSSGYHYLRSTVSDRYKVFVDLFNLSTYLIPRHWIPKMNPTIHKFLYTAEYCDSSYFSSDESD
T1 sequence (P14902 whole entry): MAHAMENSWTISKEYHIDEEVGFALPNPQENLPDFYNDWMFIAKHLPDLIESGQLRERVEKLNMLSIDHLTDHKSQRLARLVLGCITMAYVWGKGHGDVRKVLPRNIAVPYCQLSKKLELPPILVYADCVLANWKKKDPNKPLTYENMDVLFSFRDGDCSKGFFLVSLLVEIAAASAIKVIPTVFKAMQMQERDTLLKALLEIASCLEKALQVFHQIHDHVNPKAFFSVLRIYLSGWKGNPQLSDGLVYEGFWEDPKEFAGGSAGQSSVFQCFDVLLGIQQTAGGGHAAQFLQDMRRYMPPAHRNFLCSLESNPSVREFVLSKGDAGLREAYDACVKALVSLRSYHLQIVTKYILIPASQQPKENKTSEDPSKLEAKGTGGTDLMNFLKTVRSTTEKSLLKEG
T2 sequence (P14902 whole entry): as above

| SMILES | IC50 (IDO1 in SKOV3 cells) [nM] | IC50 [1] [nM] | IC50 [2] [nM] |
| --- | --- | --- | --- |
| COc1ccc(-n2cc([C@H](O)c3c(C4CC4)ncc4cncn34)nn2)cc1Cl [Example 11a, (R)-[1-(3-Chloro-4-methoxy-phenyl)-1H-[1,2,3]triazol-4-yl]-(6-cyclopropyl-imidazo[1,5-a]pyrazin-5-yl)-methanol] | 23.7 | 8.17 | > 10200 |
| COc1ccc(-n2cc([C@H](O)c3c(C4CC4)ncc4cncn34)nn2)cc1F [Example 21, (R)-(6-Cyclopropyl-imidazo[1,5-a]pyrazin-5-yl)-[1-(3-fluoro-4-methoxy-phenyl)-1H-[1,2,3]triazol-4-yl]-methanol] | 33.2 | 8.24 | > 10200 |
| COc1ccc(-n2cc(C(O)c3c(C4CC4)ncc4cncn34)nn2)cc1Cl (racemic) [Example 11, rac-[1-(3-Chloro-4-methoxy-phenyl)-1H-[1,2,3]triazol-4-yl]-(6-cyclopropyl-imidazo[1,5-a]pyrazin-5-yl)-methanol] | 37.1 | 12.5 | > 10200 |
| O[C@@H](c1cn(-c2ccc(N3CCC34COC4)cc2)nn1)c1c(C2CC2)ncc2cncn12 [Example 46, (R)-(6-Cyclopropyl-imidazo[1,5-a]pyrazin-5-yl)-{1-[4-(6-oxa-1-aza-spiro[3.3]hept-1-yl)-phenyl]-1H-[1,2,3]triazol-4-yl}-methanol] | 356 | 15.1 | > 10200 |
| Oc1ccc(-n2cc(C(O)c3c(C4CC4)ccc4cncn34)nn2)cc1Cl (single isomer, unassigned) [Example 7a] | 4.84 | 2.12 | > 10200 |
| CCOc1ccc(-n2cc(C(O)c3c(C4CC4)ccc4cncn34)nn2)cn1 (racemic) [Example 9, rac-(6-Cyclopropyl-imidazo[1,5-a]pyridin-5-yl)-[1-(6-ethoxy-pyridin-3-yl)-1H-[1,2,3]triazol-4-yl]-methanol] | 31.2 | 5.43 | > 10200 |

Other lines, results leading:

| IC50 (IDO1 in SKOV3 cells) [nM] | IC50 [1] [nM] | IC50 [2] [nM] | SMILES |
| --- | --- | --- | --- |
| 282 | 16.7 | > 10200 | O[C@@H](c1cn(-c2ccccc2)nn1)c1c(C2CC2)ncc2cncn12 [Example 3a, (R)-(6-Cyclopropyl-imidazo[1,5-a]pyrazin-5-yl)-(1-phenyl-1H-[1,2,3]triazol-4-yl)-methanol] |
| 34.6 | 5.05 | > 10200 | Oc1ccc(-n2cc(C(O)c3c(C4CC4)ccc4cncn34)nn2)cc1 (racemic) [Example 14, rac-4-{4-[(6-Cyclopropyl-imidazo[1,5-a]pyridin-5-yl)-hydroxy-methyl]-[1,2,3]triazol-1-yl}-phenol] |
| 12.5 | 2.93 | > 10200 | Oc1ccc(-n2cc([C@H](O)c3c(C4CC4)ncc4cncn34)nn2)cc1Cl [Example 10a, 2-Chloro-4-{4-[(R)-(6-cyclopropyl-imidazo[1,5-a]pyrazin-5-yl)-hydroxy-methyl]-[1,2,3]triazol-1-yl}-phenol] |
| 14.5 | 2.78 | 5260 | COc1ccc(-n2nnc(C(O)c3c(Cl)ccc4cncn34)c2C)cc1 (racemic) [Example 20, rac-(6-Chloro-imidazo[1,5-a]pyridin-5-yl)-[1-(4-methoxy-phenyl)-5-methyl-1H-[1,2,3]triazol-4-yl]-methanol] |
| 94.6 | 33.2 | > 10200 | OC(c1cn(-c2ccc(OCC3(F)COC3)cc2)nn1)c1c(C2CC2)ncc2cncn12 (racemic) [Example 16, rac-(6-Cyclopropyl-imidazo[1,5-a]pyrazin-5-yl)-{1-[4-(3-fluoro-oxetan-3-ylmethoxy)-phenyl]-1H-[1,2,3]triazol-4-yl}-methanol] |
| 47.4 | 5.6 | > 10200 | Oc1ccc(-n2cc([C@H](O)c3c(C4CC4)ncc4cncn34)nn2)cc1F [Example 27, 4-{4-[(R)-(6-Cyclopropyl-imidazo[1,5-a]pyrazin-5-yl)-hydroxy-methyl]-[1,2,3]triazol-1-yl}-2-fluoro-phenol] |
